{
  "source": "patent US11707527B2",
  "about": "“Nanoscale drug carrier capable of passing through blood-brain barrier” (KUNSHAN XINYUNDA BIOTECH CO., LTD., priority 2017, dated 2023)",
  "tested_on": "glioma model mice",
  "assay": "Therapy of glioma-bearing mice, survival",
  "conditions": "doxorubicin 1 mg/Kg at 9d, 12d and 15d after tumor cell inoculation",
  "procedure": "An animal therapy experiment was conducted by the inventor to glioma-bearing mice (same mice as in Example 4). In the experiment, glioma model mice (same mice as in Example 4) were divided into two groups, 5 mice for each group. And then glioma model mice were treated with doxorubicin (1 mg/Kg) respectively after tumor cell inoculation for 9d, 12d and 15d.",
  "data": [
    {"molecule": "COc1cccc2c1C(=O)c1c(O)c3c(c(O)c1C2=O)C[C@@](O)(C(=O)CO)C[C@@H]3O[C@H]1C[C@H](N)[C@H](O)[C@H](C)O1", "note": "[Free-Dox, doxorubicin]", "values": [
      {"measurement": "Mean survival time / survival period", "result": 15, "unit": "days"}
    ]}
  ]
}
